Measurements published in US20240285627A1, “DRUG COMBINATION OF FAK INHIBITOR AND IMMUNOGENIC CELL DEATH INDUCER AND USE THEREOF” (INXMED (NANJING) CO., LTD., priority 2022, published 2024).

Key:
[1] = system: Mouse colon cancer CT26 cells; experiment: Induction of immunogenic cell death targets by Crizotinib and IN10018 in CT26 cells (Example 7); assay type: cell-based; details: CT26, 48 hours; IN10018 5 μM, Crizotinib 3 μM
Protocol: CT26 cells were cultured in monolayer in vitro, and the culture conditions were: RPMI-1640 medium with 10% fetal bovine serum, 37° C. and 5% CO2. Trypsin was used for routine digestion and passage treatment two or three times a week. When the cells were in exponential growth period and the adherent confluence reached 80%-90%, the cells were collected and plated.
CT26 cells were digested with trypsin, then collected and counted. According to the counting results, the cells were diluted with RPMI-1640+10% FBS, and the dilution concentration was 50,000 cells per ml. Then, the cells were plated on 24-well culture plates, and 1 ml of cell suspension (50,000 cells) was laid in each well. After plating, the cells were cultured in 37° C. and 5% CO2 incubator. […]
After the cells were washed twice with flow buffer (DPBS+2% FBS), the cells in each group were divided into two parts on average, one of which was added with 0.5 μl of AF647 anti-Calreticulin antibody in each well, then mixed well, and incubated in the dark for 20 minutes at 4° C. […] The cells were cultured at room temperature in the dark for 15 minutes, and then analyzed by flow cytometry.
Data analysis: After the assay, the cell positive rate was analyzed by Flowjo(V10) software.

[2] = Body weight / tolerability of KPL tumor-bearing mice (Example 12); assay type: in vivo; details: KPL tumor-bearing C57BL/6 mice
Protocol: All the procedures related to animal handling, care and the treatment in the study were conducted according to guidelines approved by the Institutional Animal Care and Use Committee (IACUC) following the guidance of the Association for Assessment and Accreditation of Laboratory Animal Care (AAALAC). At the time of routine monitoring, the animals were daily checked for any effects of tumor growth and treatments on normal behavior such as mobility, food and water consumption (by looking only), body weight gain/loss (body weights were measured every two days or twice weekly), eye/hair matting and any other abnormal effects as stated in the protocol. Death and observed clinical signs were recorded on the basis of the numbers of animals within each subset.
The body weight of KPL tumor-bearing mice was monitored regularly as an indirect index of toxicity.

KPL tumor = experiment: Anti-tumor efficacy in KPL model in C57BL/6 mice (Example 12); assay type: in vivo; details: MRTX133 5 mg/kg IP BID, ANTI MOUSE PD-1 10 mg/kg IP BIW, IN10018 25 mg/kg PO QD
Protocol: 45 female C57BL/6 mice, 6-8 weeks old and 19 to 25 g in weight, were used in this study. The mice, marked by ear coding, were kept in Individual Ventilation Cages at constant temperature (20-26° C.) and humidity (40%-70%) with 3 animals in each cage. Animals had free access to irradiation sterilized dry granule food (Keao Xieli (Tianjin) Feed Co., Ltd) and sterile drinking water during the entire study period.
KPL cells were maintained in vitro in RPMI-1640 medium supplemented with 10% FBS and 1% P.S. at 37° C. in an atmosphere of 5% CO2 in air. The tumor cells were routinely sub-cultured three times weekly. KPL cells growing in an exponential growth phase were resuspended in PBS and adjusted concentration to 2×10^6/mL for tumor injection.
Each mouse was injected subcutaneously at the right flank with 0.1 mL KPL cell suspension (0.2×10^6) for tumor development. When tumor reach around 60 mm^3 on the 7th day after cell injection, mice were randomly grouped according to tumor volume, followed by drug administration. The day of grouping was defined as day 0.
The major endpoint is to see if the tumor growth can be delay or mice can be cured. Tumor sizes were measured three times weekly in two dimensions using a caliper (No. 105688, sylvac Dantsin), and the volume was expressed in mm^3 using the formula: V=0.5×a×b^2 (a, long diameters; b, short diameters). The tumor sizes were then used for the calculations of T/C (%) values. T/C (%) was calculated using the formula: T/C (%)=(Ti−T0)/(Vi−V0)×100%, Ti was the average tumor volume of a treatment group on a given day, T0 was the average tumor volume of the treatment group on the first day of treatment, Vi was the average tumor volume of the vehicle control group on the same day with Ti, and V0 was the average tumor volume of the vehicle group on the first day of treatment.
TGI was calculated for each group using the formula: TGI (%)=100%-T/C (%).
Efficacy study was euthanized on D28 after treatment according to requirement, tumors were collected and photographed, tumor weight were recorded meanwhile. Tumors were selected from each group and stored in 10% Formalin for the following research.
Summary statistics, including mean and the standard error of the mean (SEM), are provided for the tumor volume of each group at each time point. Statistical analysis of difference in tumor volume and tumor weight versus Vehicle group were conducted on the data obtained at each time point. T-test was performed to compare tumor volume among groups. A value of p<0.05 was considered to be statistically significant.

Structure (SMILES) | cell state under a microscope (cell death; cell viability) [1] | tolerability in KPL model [2] | T/C (%) (KPL tumor; Day 3 after treatment) | TGI (%) (KPL tumor; Day 3 after treatment) | T/C (%) (KPL tumor; Day 7 after treatment) | TGI (%) (KPL tumor; Day 7 after treatment) | T/C (%) (KPL tumor; Day 10 after treatment) | TGI (%) (KPL tumor; Day 10 after treatment) | T/C (%) (KPL tumor; Day 14 after treatment) | TGI (%) (KPL tumor; Day 14 after treatment) | T/C (%) (KPL tumor; Day 17 after treatment) | TGI (%) (KPL tumor; Day 17 after treatment) | T/C (%) (KPL tumor; Day 21 after treatment) | TGI (%) (KPL tumor; Day 21 after treatment) | T/C (%) (KPL tumor; Day 24 after treatment) | TGI (%) (KPL tumor; Day 24 after treatment) | T/C (%) (KPL tumor; Day 28 after treatment) | TGI (%) (KPL tumor; Day 28 after treatment) | tumor volume (KPL tumor; day 28)
COc1cc(C(=O)NC2CCN(C)CC2)c(F)cc1Nc1ncc(C(F)(F)F)c(Oc2cccc3c2C(=O)N(C)C3)n1 [IN10018] | better | – | – | – | – | – | – | – | – | – | – | – | – | – | – | – | – | – | –
C#Cc1c(F)ccc2cc(O)cc(-c3ncc4c(N5CC6CCC(C5)N6)nc(OC[C@@]56CCCN5C[C@H](F)C6)nc4c3F)c12 [MRTX1133] | – | well-tolerated | 15.72% | 84.28% | −50.80% | 150.80% | 2.69% | 97.31% | 30.94% | 69.06% | 56.17% | 43.83% | 58.22% | 41.78% | 61.87% | 38.13% | 71.43% | 28.57% | 579.34 mm^3
